Values quoted from earlier work, collected in US20170095440A1, “METHOD OF TREATING CANINE PANCREATITIS” (CK9, LLC, priority 2014, published 2017).

System: serine protease
Details: hydrolysis products of Camostat Mesilate; cited from earlier work

| Structure (SMILES) | Anti-proteolytic activity |
| --- | --- |
| N=C(N)Nc1ccc(C(=O)Oc2ccc(CC(=O)O)cc2)cc1 [GBPA, 4-(4-guanidino-benzoyloxy) phenylacetic acid] | active anti-proteolytic metabolite |
| N=C(N)Nc1ccc(C(=O)O)cc1 [GBA, 4-guanidinobenzoic acid] | non-active |
